{"source": "patent US20040071718A1", "about": "“Local nasal immunotherapy for allergen-induced airway inflammation” (priority 2002, published 2004)", "assay_type_in_all_cases": "in vivo", "key": {"Balb/c mice [1]": {"test_system": "Balb/c mice", "test": "Leukocyte subpopulations in BALF of rDp2-sensitized mice after local nasal immunotherapy (LNIT)", "conditions": "BALF", "protocol": "Male Balb/c mice were obtained from the National Laboratory Breeding Research Center in Taiwan and were raised in a specific pathogen-free environment. The mice used were between six and eight weeks of age. Groups of six mice were caged separately according to their treatment. Recombinant Dermatophoides pteronyssinus group 2 (rDp2) was prepared as previously described(Tsai J J, et al. Int Arch Allergy Immunol 2000;121:205-10). Dp2 28-40 and Dp2 28-40A were obtained from Dr. Jonathan Lamb (Respiratory Medicine Unit, Edinburgh University, Medical School, Edinburgh, UK) (Verhoef A, and Lamb J R. J Immunol 2000;164:6034-6040). FIP was obtained from Dr. Ko Jiunn-Liang (Institute of Toxicology, Chung Shan Medical University, Taichung, R O C) (J L Ko, et al. Eur. J. Biochem. 1995;228:244-249).\n(§1) Mice were immunized by way of an intraperitoneal (IP) injection of 1 μg/0.1 mL rDp2 emulsified in 4.0 mg/0.062mL aluminum hydroxide Al(OH)3 (Whitehall Lab Ltd. Punchbowl, NSW, Australia) on day 0 and day 7. Following immunization, local nasal immunotherapy (LNIT) was conducted daily from day 14 to day 35 with Dp2 28-40, Dp2 28-40A, FIP alone or FIP mixed with either Dp2 28-40 or Dp2 28-40A (FIP, 50 μg/mouse/day; Dp2 peptide, 1 μg/20 μL) in PBS with 10% glycerol. Normal saline (NS) and irrelevant allergen Bt were used as a negative control. […] On day 28, mice were lightly anesthetized with an IP injection of 60 mg/kg of sodium pentobarbital (Sigma Chemical Co., St Louis, Mo., U.S.A.) and inoculated intratracheally (IT) with 1 μg/50 μL of rDp 2 on day 28 and day 35. Two days subsequent to the second IT inoculation, the mice were sacrificed following the assessment of their pulmonary function (FIG. 1).\nSubsequent to pulmonary function measurement having been completed, bronchoalveolar lavage (BAL) was performed using the following procedure. BAL fluids were collected with lmL sterile endotoxin-free saline washes of each lung via the trachea for each mouse. BAL cells were washed once with PBS by centrifugation at 200×g at 4° C. Subsequent to washing, the cells were resuspended in RPMI-1640 (Sigma Chemical Co.). The total leukocyte count in BAL fluids was determined using a hemocytometer. The BAL fluids were aspirated and stored at −70° C. until needed for assay purposes. Subsequent to total leukocyte counting, a cytospin preparation of 100 μL BAL fluids (2×10^5 cells/mL) was conducted, the cells being cytocentrifuged directly onto glass slides at 350 r.p.m. for five minutes using a Cytospin 3 cytocentrifuge (Shandon Scientific Limited, Astmoor, Runcorn, UK), and then stained with Liu stain (Tonyar Diagnostic Inc, Taipei & Hien, Taiwan). The differential counts were performed for a total of 200 leukocyte cells."}, "Balb/c mice [2]": {"test_system": "Balb/c mice", "test": "Cytokine producing cells in peripheral blood (flow cytometry) after LNIT", "conditions": "for IL-5/IFN-γ (CD4) / IL-5/IFN-γ (CD8): peripheral blood", "protocol": "(§2) Male Balb/c mice were obtained from the National Laboratory Breeding Research Center in Taiwan and were raised in a specific pathogen-free environment. The mice used were between six and eight weeks of age. Groups of six mice were caged separately according to their treatment.\nas §1\nTwo-color staining methods were used to analyze IFN-γ and IL-5 expression amongst CD4 cells. Leukocytes derived from peripheral blood (PBL) were stimulated with PMA (50 ng/mL), ionomycin (2 μM) and GolgiStop (Cytofix/Cytoperm Plus Pharmingen San Diego, Calif., U.S.A.) for five hours and then washed twice using PBS. The cells were stained with CD4-PerCP, CD8-FITC or IgG1-FITC (PharMingen) at room temperature (RT) for 30 minutes and then washed. Cells were fixed with cytofix/cytoperm at RT for 30 minutes and then stained with anti-cytokine antibody and IgG2a-PE (PharMingen) at RT for 30 minutes and subsequently washed. Both IgG1-FITC and IgG2a-PE were purchased from the same manufacturer as the anticytokine antibodies and the negative controls. Cells were resuspended in 0.5 mL PBS containing 0.1% w/v sodium azide. Mean fluorescence was measured by means of Becton Diskinson flow cytometry (Becton Diskinson, Calif., U.S.A.). A total of 2,000 cells was analyzed for each sample."}, "Balb/c mice [3]": {"test_system": "Balb/c mice", "test": "IL-5 and IFN-γ levels in sera and BALF (ELISA) after LNIT", "conditions": "Example 2, mean ± SEM, n = 6", "protocol": "as §2, §1\nIFN-γ and IL-5 were measured using commercially-available ELISA kits, using a specific mouse monoclonal Ab that recognized different epitopes of the cytokine molecules. The lowest detector range was 10 pg/mL. Given that the BALF was considered to be at too diluted a concentration, IL-4 was not measured."}, "[4]": {"conditions": "Example 1, LNIT day 14-35, rDp2 IT challenge, mean ± SEM of six animals"}, "[5]": {"conditions": "Example 2 (FIP study), mean ± SEN of six mice"}, "[6]": {"conditions": "Example 1, percentage of positive stained cells in the PBMC of six mice"}, "[7]": {"conditions": "Example 2, percentage of total leukocytes in the peripheral blood of six mice"}}, "note": "Marks after values point to notes of the source that are not given here.", "data": [{"smiles": "C[C@@H]1C[C@H]2[C@@H]3CCC4=CC(=O)C=C[C@]4(C)[C@@]3(F)[C@@H](O)C[C@]2(C)[C@@]1(O)C(=O)CO", "note": "[DEX, Dexamethasone, reference compound]", "values": [{"measurement": "Eosinophil", "setting": "Balb/c mice [1]; [4]", "value": "3.2 ± 0.4* 10^4 cells/mL"}, {"measurement": "Lymphocyte", "setting": "Balb/c mice [1]; [4]", "value": "9.4 ± 1.5* 10^4 cells/mL"}, {"measurement": "Macrophage", "setting": "Balb/c mice [1]; [4]", "value": "29.2 ± 4.4* 10^4 cells/mL"}, {"measurement": "Neutrophil", "setting": "Balb/c mice [1]; [4]", "value": "6.6 ± 1.0* 10^4 cells/mL"}, {"measurement": "Total cell", "setting": "Balb/c mice [1]; [4]", "value": "46.4 ± 2.2* 10^4 cells/mL"}, {"measurement": "Eosinophil", "setting": "Balb/c mice [1]; [5]", "value": "3.8 ± 0.5 ×10^4/mL"}, {"measurement": "Lymphocyte", "setting": "Balb/c mice [1]; [5]", "value": "15.3 ± 0.6 ×10^4/mL"}, {"measurement": "Macrophage", "setting": "Balb/c mice [1]; [5]", "value": "28.3 ± 1.7 ×10^4/mL"}, {"measurement": "Neutrophil", "setting": "Balb/c mice [1]; [5]", "value": "8.0 ± 0.8 ×10^4/mL"}, {"measurement": "CD4^+", "setting": "Balb/c mice [2]; [6]", "value": 45.6, "unit": "percentage"}, {"measurement": "CD8^+", "setting": "Balb/c mice [2]; [6]", "value": 7.0, "unit": "percentage"}, {"measurement": "IFN-γ^+/CD4^+", "setting": "Balb/c mice [2]; [6]", "value": 7.9, "unit": "percentage"}, {"measurement": "IFN-γ^+/CD8^+", "setting": "Balb/c mice [2]; [6]", "value": 7.9, "unit": "percentage"}, {"measurement": "IL-5^+/CD4^+", "setting": "Balb/c mice [2]; [6]", "value": 9.2, "unit": "percentage"}, {"measurement": "IL-5^+/CD8^+", "setting": "Balb/c mice [2]; [6]", "value": 8.2, "unit": "percentage"}, {"measurement": "IL-5/IFN-γ (CD4)", "setting": "Balb/c mice [2]; Example 1, ratio of IL-5 to IFN-γ producing CD4 cells", "value": 1.2}, {"measurement": "IL-5/IFN-γ (CD8)", "setting": "Balb/c mice [2]; Example 1, ratio of IL-5 to IFN-γ producing CD8 cells", "value": 1.0}, {"measurement": "CD4", "setting": "Balb/c mice [2]; [7]", "value": 51.2, "unit": "percentage"}, {"measurement": "CD8", "setting": "Balb/c mice [2]; [7]", "value": 7.9, "unit": "percentage"}, {"measurement": "IFN-γ^+/CD4^+", "setting": "Balb/c mice [2]; [7]", "value": 17.7, "unit": "percentage"}, {"measurement": "IFN-γ^+/CD8^+", "setting": "Balb/c mice [2]; [7]", "value": 14.1, "unit": "percentage"}, {"measurement": "IL-5^+/CD4^+", "setting": "Balb/c mice [2]; [7]", "value": 15.8, "unit": "percentage"}, {"measurement": "IL-5^+/CD8^+", "setting": "Balb/c mice [2]; [7]", "value": 14.1, "unit": "percentage"}, {"measurement": "IL-5/IFN-γ (CD4)", "setting": "Balb/c mice [2]; Example 2, ratio, CD4 cells", "value": 0.9}, {"measurement": "IL-5/IFN-γ (CD8)", "setting": "Balb/c mice [2]; Example 2, ratio, CD8 cells", "value": 1.0}, {"measurement": "IFN-γ", "setting": "Balb/c mice [3]; BALF", "value": "9.9 ± 0.6", "unit": "pg/mL"}, {"measurement": "IL-5", "setting": "Balb/c mice [3]; BALF", "value": "19.2 ± 1.2", "unit": "pg/mL"}, {"measurement": "IFN-γ", "setting": "Balb/c mice [3]; Sera", "value": "46.2 ± 3.4", "unit": "pg/mL"}, {"measurement": "IL-5", "setting": "Balb/c mice [3]; Sera", "value": "138.0 ± 16.6", "unit": "pg/mL"}]}]}
